Test results from patent US5773005A, “Purified flavonoid and diterpene 5α-reductase inhibitors from thuja orientalis for androgen-related diseases” (priority 1995, dated 1998).

What was measured:
acne patients = experiment: Treatment of acne patients with diterpene lotion, scored (Example 9); type: in vivo, human; settings: lotion with 1% diterpene, twice a day, group score of 6 patients (3 cured completely, 2 half cured, 1 cured 30%, 0 not cured), highest 18; for Score, 1 mo.: 1 month; for Score, 2 mo.: 2 months
Method: Patients in their twenties who were suffering from acne were divided into five groups each consisting of 3 males and 3 females and treated with a lotion of the following formula prepared in accordance with the invention. |Ethanol 50% |1,3-Butylene glycol | 20% |HCO-60 3% |Diterpene 1% |Purified water 26% The lotion was applied to the diseased part of a patient's face after washing with takallophene soap and the treatment was conducted daily on a twice-a-day basis for a period of 2 months. The acne in each patient was diagnosed as being moderate and a mixture of comedones (primarily whiteheads), papules and pustules. The results were evaluated by the following criteria: 3, cured completely; 2, half cured; 1, cured 30%; 0, not cured. The highest score was 18 and the lowest score was 0.

[1] = system: male pattern baldness in stage V; experiment: Therapeutic effect on male pattern baldness in stage V, scored (Example 10); type: in vivo, human; parameters: key: 10: alopecic area decreased to 1/5 or less and hair density increased by 2/3 or more; 7: alopecic area decreased to 1/3 or less and hair density increased by 1/3 or more; 4: alopecic area decreased to 1/2 or less and hair density increased by 1/5 or more; alopecic area decreased by 20% and hair density increased by 10% or more; 1: alopecic area hardly changed but hair density increased definitely; 0: no change at all; settings: formula with 1% diterpene, twice a day; for Score, 0 mo.: 0 months; for Score, 1 mo.: 1 month; for Score, 2 mo.: 2 months; for Score, 4 mo.: 4 months; for Score, 6 mo.: 6 months
Method: Diterpenes of the invention were evaluated for their therapeutic effects on male pattern baldness in stage V. The curatives were prepared in accordance with the formula set forth in Table 11. | Ethanol 50% | Propylene glycol | 10% | HCO-60 3% | Diterpene 1% | Purified water | 36% The curatives were applied to the bald area of male volunteers (aged 27-45) in five groups each consisting of 5 cases. The application was done daily on a twice-a-day basis and continued for 6 months. The therapeutic efficacy was evaluated by the following criteria based on the decrease in the area of the parietal alopecic lesion and the density of regrowing hairs: 10 (alopecic area decreased to 1/5 or less and hair density increased by 2/3 or more); 7 (alopecic area decreased to 1/3 or less and hair density increased by 1/3 or more); 4 (alopecic area decreased to 1/2 or less and hair density increased by 1/5 or more); 2 (alopecic area decreased by 20% and hair density increased by 10% or more); 1 (alopecic area hardly changed but hair density increased definitely); 0 (no change at all).

[2] = system: androgen-dependent human prostatic cancer strain HONDA; experiment: Growth control of androgen-dependent human prostatic cancer strain HONDA in nude mice (Example 15); type: in vivo, human (transplanted in BALB/CA-nu/nu mice); settings: once a day, 28 days; for control of tumor growth (HONDA): peroral in 0.5% CMC
Method: Seven-week old BALB/CA-nu/nu mice were transplanted with androgen-dependenthuman prostatic cancer strain HONDA beneath the dorsal skin and 6-week old BALB/CA-nu/nu mice were transplanted with androgen-dependent rat prostatic cancer strain […] beneath the dorsal skin. When the respective tumors grew to a specified size, the animals were divided into test and control groups. The test groups were administered with suspensions of trans-communic acid and flutamide in 0.5% CMC. The control groups were administered with 0.5% CMC alone. The drugs and the vehicle were administered perorally via an oral probe. The administration was repeated daily for 28 consecutive days on a once-a-day basis. The tumor volume (mm^3) was calculated by the formula of major axis (mm) × the square of minor axis (mm^2)/2.

[3] = system: male pattern baldness in stage V; experiment: Efficacy against male pattern baldness in stage V, male volunteers (Example 4); type: in vivo, human; settings: 1% in 50% alcohol, twice a day, 4 months
From the text: The 5α-reductase inhibitors extracted from Thuja orientalis were examined for their efficacy against male pattern baldness in stage V. The test samples were components A, B and C, as well as the terpenoid isolated from component A and the (iso)scutellarein isolated from component B, which were each dissolved at a concentration of 1% in 50% alcohol. These samples were daily applied on a twice-a-day basis for a period of 4 months to the bald heads of 27-45 year old male volunteers in five groups each consisting of 5 cases.

male hirsute volunteers = experiment: Suppression of hair regrowth in male hirsute volunteers, wax-depilated inferior limbs (Example 5); type: in vivo, human; settings: 1% in 50% alcohol
hirsute male volunteers = experiment: Hair regrowth on wax-depilated legs of hirsute male volunteers (Example 13); type: in vivo, human; settings: 0.1% in 50% ethanol, twice a day, 3 months, control section indistinguishable from surrounding area
Method: An experiment was conducted on 5 hirsute male volunteers aged 25-48. The center of each straight leg was depilated with wax to create a lesion about 2 cm wide and 3 cm long. […] The application was done daily on a twice-a-day basis for 3 consecutive months.

[4] = system: women suffering from idiopathic hirtuism; experiment: Women suffering from idiopathic hirsutism, depilated right forearm (Example 14); type: in vivo, human; settings: 0.1% in 50% ethanol, twice a day
Method: Five women (aged 20-35) suffering from idiopathic hirtuism were treated with 0.1% trans-communic acid in 50% ethanol that was applied daily to a wax depilated area of the right forearm on a twice-a-day basis. Depilation was repeated every other month until the end of the experiment.
Measurements were conducted on the hairs attached to the cloth used for wax depilation.

[5] = system: androgen-dependent rat prostatic cancer strain R3327-G; experiment: Growth control of androgen-dependent rat prostatic cancer strain R3327-G in nude mice (Example 15); type: in vivo, rat (transplanted in BALB/CA-nu/nu mice); settings: castrated mice given 25 mg testosterone enanthat per head; peroral, once a day, 28 days
Method: Seven-week old BALB/CA-nu/nu mice were transplanted with androgen-dependenthuman prostatic cancer strain HONDA beneath the dorsal skin and 6-week old BALB/CA-nu/nu mice were transplanted with androgen-dependent rat prostatic cancer strain R3327-G beneath the dorsal skin. When the respective tumors grew to a specified size, the animals were divided into test and control groups. The test groups were administered with suspensions of trans-communic acid and flutamide in 0.5% CMC. The control groups were administered with 0.5% CMC alone. The drugs and the vehicle were administered perorally via an oral probe. The administration was repeated daily for 28 consecutive days on a once-a-day basis. The tumor volume (mm^3) was calculated by the formula of major axis (mm) × the square of minor axis (mm^2)/2.
The growth of cancer strain R3327-G was not controlled in castrated mice when they were administered 25 mg of testosterone enanthat per head concurrently with the cancer transplantation.

Row | Molecule | Score, 1 mo. (acne patients) | Score, 2 mo. (acne patients) | Score, 0 mo. [1] | Score, 1 mo. [1] | Score, 2 mo. [1] | Score, 4 mo. [1] | Score, 6 mo. [1] | control of tumor growth (HONDA) [2] | also measured
1 | CC(C)C(=O)Nc1ccc([N+](=O)[O-])c(C(F)(F)F)c1 [Flutamide, reference compound] | 4 | 8 | 0 | 1 | 2 | 2 | 4 | effective in tumor control | efficacy of flutamide relative to trans-communic acid (HONDA) ([2]; peroral): considerably weaker than that of trans-communic acid
2 | C=C/C(C)=C/CC1C(=C)CCC2C(C)(CO)CCCC12C (stereo not drawn) [Sample III, (E)8(17),12,14-labdatrien-19-ol] | 9 | 18 | 0 | 0 | 4 | 7 | 10 |  | 
3 | (iso)scutellarein |  |  |  |  |  |  |  |  | regrowth of hair [3]: pronounced regrowth of hair; regrowth of hair as compared to the control section (male hirsute volunteers; topical, control 50% alcohol alone): significantly suppressed; regrowth of hair in the test sections when the experiment ended (male hirsute volunteers; 3 months): barely recognizable
4 | C=C/C(C)=C/CC1C(=C)CCC2C(C)(C)CCCC12C (stereo not drawn) [Sample II, (E)8(17),12,14-labdatriene] | 10 | 18 | 0 | 1 | 4 | 7 | 10 |  | 
5 | C=C/C(C)=C/CC1C(=C)CCC2C(C)(C(=O)O)CCCC12C (stereo not drawn) [Sample I, (E)8(17),12,14-labdatrien-19-oic acid] | 8 | 18 | 0 | 1 | 4 | 7 | 10 | could control the growth of this cancer significantly in a dose-dependent manner | Regrowth of hair, test section, case A (hirsute male volunteers; case A): No regrowth of hair; Regrowth of hair, test section, case B (hirsute male volunteers; case B): No regrowth of hair; Regrowth of hair, test section, case C (hirsute male volunteers; case C): Regrowth of a few hair; Regrowth of hair, test section, case D (hirsute male volunteers; case D): No regrowth of hair; Regrowth of hair, test section, case E (hirsute male volunteers; case E): No regrowth of hair; Hair length (peaked at), sixth measurement, case A ([4]; case A, before treatment: peaked at ca. 10 mm): ca. 10 mm; Hair density, sixth measurement, case A ([4]; case A, before treatment: thick): sparse; Hair length, sixth measurement, case B ([4]; case B, before treatment: peaked at ca. 6 mm): ca. 1 mm; Hair density, sixth measurement, case B ([4]; case B, before treatment: thick): a few; Hair length, sixth measurement, case D ([4]; case D, before treatment: peaked at ca. 8 mm): ca. 2 mm; Hair density, sixth measurement, case D ([4]; case D, before treatment: thick): a few; tumor size at 20 mg/kg vs flutamide 200 mg/kg (HONDA) ([2]; trans-communic acid 20 mg/kg, peroral): almost comparable to that of the group administered with 200 mg/kg of flutamide; control of tumor growth (R3327-G) [5]: could effectively control the growth of cancer in a dose-dependent manner; efficacy relative to flutamide (R3327-G) [5]: considerably stronger than that of flutamide
